Measured values taken from PubChem BioAssay (NCI).
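Step 1: Grow cells in 96-well plates. Step 2: Expose to compound for 48 hours at 5 concentrations. Step 3: Interpolate endpoints linearly; if unreached, use highest concentration. GI50: concentration for 50% inhibition of growth. TGI denotes the concentration required for complete inhibition of growth.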

Legend:
Test in all cases: NCI tumour cell line growth inhibition, 48 h
MDA-MB-468 breast = tested on: MDA-MB-468 breast
OVCAR-5 ovarian = tested on: OVCAR-5 ovarian
NCI/ADR-RES ovarian = tested on: NCI/ADR-RES ovarian
HCT-116 colon = tested on: HCT-116 colon
OVCAR-3 ovarian = tested on: OVCAR-3 ovarian
MDA-MB-231 breast = tested on: MDA-MB-231 breast
SR leukemia = tested on: SR leukemia
NCI-H23 lung = tested on: NCI-H23 lung
KM12 colon = tested on: KM12 colon
TK-10 renal = tested on: TK-10 renal
CAKI-1 renal = tested on: CAKI-1 renal
HT29 colon = tested on: HT29 colon
UO-31 renal = tested on: UO-31 renal
A498 renal = tested on: A498 renal
RPMI-8226 leukemia = tested on: RPMI-8226 leukemia
HL-60(TB) leukemia = tested on: HL-60(TB) leukemia
SK-MEL-28 melanoma = tested on: SK-MEL-28 melanoma
SK-OV-3 ovarian = tested on: SK-OV-3 ovarian
T-47D breast = tested on: T-47D breast
DU-145 prostate = tested on: DU-145 prostate
MALME-3M melanoma = tested on: MALME-3M melanoma
SNB-75 CNS = tested on: SNB-75 CNS
UACC-257 melanoma = tested on: UACC-257 melanoma
UACC-62 melanoma = tested on: UACC-62 melanoma
SK-MEL-2 melanoma = tested on: SK-MEL-2 melanoma
HCT-15 colon = tested on: HCT-15 colon
OVCAR-8 ovarian = tested on: OVCAR-8 ovarian
BT-549 breast = tested on: BT-549 breast
SW-620 colon = tested on: SW-620 colon
SN12C renal = tested on: SN12C renal
NCI-H226 lung = tested on: NCI-H226 lung
HS 578T breast = tested on: HS 578T breast
SK-MEL-5 melanoma = tested on: SK-MEL-5 melanoma
HOP-62 NSCLC = tested on: HOP-62 NSCLC
A549 NSCLC = tested on: A549 NSCLC
ACHN renal = tested on: ACHN renal
NCI-H522 lung = tested on: NCI-H522 lung
U251 CNS = tested on: U251 CNS
SF-268 CNS = tested on: SF-268 CNS
MDA-MB-435 = tested on: MDA-MB-435
NCI-H460 lung = tested on: NCI-H460 lung
EKVX NSCLC = tested on: EKVX NSCLC
HOP-92 NSCLC = tested on: HOP-92 NSCLC
K-562 leukemia = tested on: K-562 leukemia
SF-539 CNS = tested on: SF-539 CNS
COLO 205 colon = tested on: COLO 205 colon
786-0 renal = tested on: 786-0 renal
MOLT-4 leukemia = tested on: MOLT-4 leukemia
RXF 393 renal = tested on: RXF 393 renal
OVCAR-4 ovarian = tested on: OVCAR-4 ovarian
CCRF-CEM leukemia = tested on: CCRF-CEM leukemia
LOX IMVI melanoma = tested on: LOX IMVI melanoma
HCC-2998 colon = tested on: HCC-2998 colon
MCF7 breast = tested on: MCF7 breast
SNB-19 CNS = tested on: SNB-19 CNS
PC-3 prostate = tested on: PC-3 prostate
IGROV1 ovarian = tested on: IGROV1 ovarian
SF-295 CNS = tested on: SF-295 CNS
M14 melanoma = tested on: M14 melanoma

SMILES: CN(C)c1ccnc(CNCCSC2(c3ccc(C(F)(F)F)cc3)c3ccccc3C=Cc3ccccc32)c1
- GI50 (MDA-MB-468 breast): 0.74 µM
- TGI (MDA-MB-468 breast): 1.99 µM
- GI50 (OVCAR-5 ovarian): 2.74 µM
- TGI (OVCAR-5 ovarian): 11.2 µM
- GI50 (NCI/ADR-RES ovarian): 2 µM
- TGI (NCI/ADR-RES ovarian): 4.39 µM
- GI50 (HCT-116 colon): 0.611 µM
- TGI (HCT-116 colon): 12.5 µM
- GI50 (OVCAR-3 ovarian): 1.73 µM
- TGI (OVCAR-3 ovarian): 5.93 µM
- GI50 (MDA-MB-231 breast): 1.11 µM
- TGI (MDA-MB-231 breast): 3.36 µM
- GI50 (SR leukemia): 0.723 µM
- TGI (SR leukemia): 4.15 µM
- GI50 (NCI-H23 lung): 2.8 µM
- TGI (NCI-H23 lung): 9.31 µM
- GI50 (KM12 colon): 1.41 µM
- TGI (KM12 colon): 5.33 µM
- GI50 (TK-10 renal): 7.1 µM
- TGI (TK-10 renal): 21.3 µM
- GI50 (CAKI-1 renal): 4.37 µM
- TGI (CAKI-1 renal): 16.5 µM
- GI50 (HT29 colon): 1.79 µM
- TGI (HT29 colon): 5.65 µM
- GI50 (UO-31 renal): 3.91 µM
- TGI (UO-31 renal): 16.2 µM
- GI50 (A498 renal): 11.9 µM
- TGI (A498 renal): 27.2 µM
- GI50 (RPMI-8226 leukemia): 1.03 µM
- TGI (RPMI-8226 leukemia): 4.41 µM
- GI50 (HL-60(TB) leukemia): 1.2 µM
- TGI (HL-60(TB) leukemia): 3.91 µM
- GI50 (SK-MEL-28 melanoma): 4.34 µM
- TGI (SK-MEL-28 melanoma): 9.09 µM
- GI50 (SK-OV-3 ovarian): 4.38 µM
- TGI (SK-OV-3 ovarian): 13.7 µM
- GI50 (T-47D breast): 4.63 µM
- TGI (T-47D breast): 15.7 µM
- GI50 (DU-145 prostate): 3.12 µM
- TGI (DU-145 prostate): 10.8 µM
- GI50 (MALME-3M melanoma): 2.35 µM
- TGI (MALME-3M melanoma): 6.51 µM
- GI50 (SNB-75 CNS): 1.76 µM
- TGI (SNB-75 CNS): 6.61 µM
- GI50 (UACC-257 melanoma): 4.33 µM
- TGI (UACC-257 melanoma): 11.2 µM
- GI50 (UACC-62 melanoma): 3.41 µM
- TGI (UACC-62 melanoma): 8.81 µM
- GI50 (SK-MEL-2 melanoma): 1.2 µM
- TGI (SK-MEL-2 melanoma): 3.72 µM
- GI50 (HCT-15 colon): 1.12 µM
- TGI (HCT-15 colon): 6.62 µM
- GI50 (OVCAR-8 ovarian): 1.18 µM
- TGI (OVCAR-8 ovarian): 4.73 µM
- GI50 (BT-549 breast): 3.19 µM
- TGI (BT-549 breast): 9.62 µM
- GI50 (SW-620 colon): 1 µM
- TGI (SW-620 colon): 4.45 µM
- GI50 (SN12C renal): 2.16 µM
- TGI (SN12C renal): 8.08 µM
- GI50 (NCI-H226 lung): 5.45 µM
- TGI (NCI-H226 lung): 16.3 µM
- GI50 (HS 578T breast): 1.57 µM
- TGI (HS 578T breast): 6.75 µM
- GI50 (SK-MEL-5 melanoma): 1.96 µM
- TGI (SK-MEL-5 melanoma): 5.43 µM
- GI50 (HOP-62 NSCLC): 2.69 µM
- TGI (HOP-62 NSCLC): 13.9 µM
- GI50 (A549 NSCLC): 1.35 µM
- TGI (A549 NSCLC): 5.71 µM
- GI50 (ACHN renal): 3.21 µM
- TGI (ACHN renal): 14.6 µM
- GI50 (NCI-H522 lung): 0.771 µM
- TGI (NCI-H522 lung): 2.49 µM
- GI50 (U251 CNS): 1.11 µM
- TGI (U251 CNS): 4.03 µM
- GI50 (SF-268 CNS): 3.67 µM
- TGI (SF-268 CNS): 16.6 µM
- GI50 (MDA-MB-435): 0.605 µM
- TGI (MDA-MB-435): 1.34 µM
- GI50 (NCI-H460 lung): 1.09 µM
- TGI (NCI-H460 lung): 3.86 µM
- GI50 (EKVX NSCLC): 1.77 µM
- TGI (EKVX NSCLC): 14.2 µM
- GI50 (HOP-92 NSCLC): 2.17 µM
- TGI (HOP-92 NSCLC): 10.2 µM
- GI50 (K-562 leukemia): 2.8 µM
- TGI (K-562 leukemia): 14 µM
- GI50 (SF-539 CNS): 1.12 µM
- TGI (SF-539 CNS): 3.18 µM
- GI50 (COLO 205 colon): 0.927 µM
- TGI (COLO 205 colon): 2.9 µM
- GI50 (786-0 renal): 2.49 µM
- TGI (786-0 renal): 7.12 µM
- GI50 (MOLT-4 leukemia): 1.12 µM
- TGI (MOLT-4 leukemia): 5.41 µM
- GI50 (RXF 393 renal): 1.97 µM
- TGI (RXF 393 renal): 7.54 µM
- GI50 (OVCAR-4 ovarian): 5.33 µM
- TGI (OVCAR-4 ovarian): 16.3 µM
- GI50 (CCRF-CEM leukemia): 1.06 µM
- TGI (CCRF-CEM leukemia): 13.4 µM
- GI50 (LOX IMVI melanoma): 2.2 µM
- TGI (LOX IMVI melanoma): 6.16 µM
- GI50 (HCC-2998 colon): 0.91 µM
- TGI (HCC-2998 colon): 2.63 µM
- GI50 (MCF7 breast): 0.853 µM
- TGI (MCF7 breast): 4.19 µM
- GI50 (SNB-19 CNS): 3.53 µM
- TGI (SNB-19 CNS): 17.3 µM
- GI50 (PC-3 prostate): 1.49 µM
- TGI (PC-3 prostate): 11.3 µM
- GI50 (IGROV1 ovarian): 2.58 µM
- TGI (IGROV1 ovarian): 16 µM
- GI50 (SF-295 CNS): 1.6 µM
- TGI (SF-295 CNS): 6.56 µM
- GI50 (M14 melanoma): 0.598 µM
- TGI (M14 melanoma): 2.69 µM
